Source: US4837342A, “Prostacyclin analogue, and blood circulation improving agent and anti-ulcer composition containing it as active ingredient” (Sagami Chemical Research Center, priority 1986, dated 1989)
pIC50: −log10 of the molar value. “And” between values parts separate entries of the source, which are not always exact repeats. Equal entries are not always repeated.

How the values were obtained:
[1] = test system: Blood platelet (Collagen agglutination); assay: Blood platelet agglutination inhibiting activity (collagen-induced), washed rabbit platelet suspension; format: cell-based, rabbit (Japanese white male rabbits); conditions: for Activity ratio, platelet agglutination inhibiting activity, Collagen agglutination: relative to prostacyclin = 1; for pIC50: Oryctolagus cuniculus, Platelet, collagen 1 μg/ml, concentration suppressing agglutination to 50%, read-out: Platelet agglutination inhibiting activity ED50, Collagen agglutination
Experimental: (§1) Blood platelet aggutination inhibiting activity
(§2) Japanese white male rabbits having a weight of from 2.0 to 2.5 kg were used.
(§3) Under anesthesia with sodium Pentobarbital, blood was sampled from the carotid artery, and mixed with a 1/7 volume of an anticoagulant citric acid dextrose solution. Then, the mixture was subjected to centrifugal separation at 140×g for 15 minutes, whereupon the supernatant (platelet rich plasma:PRP) was obtained. PRP was subjected to centrifugal separation at 1,300×g for 7 minutes. The blood platelet pellets thus obtained were washed with a HEPES buffer solution (pH 6.5) for washing blood platelets, and subjected to centrifugal separation at 1,300×g for 7 minutes. The blood platelet pellets washed twice under such condition, were suspended in a suspending liquid (a buffer solution for washing blood platelets, which contains 0.1% of human fibrinogen, 1.8 mM of CaCl2 and 1.2 mM of MgCl2) to obtain a blood platelet suspension having a concentration of from 5×10^8 to 8×10^8 platelets/ml.
(§4) The platelet agglutination ability was measured by means of an agglutination meter. To 380 μl of the platelet suspension, 10 μl of a test compound or a solvent as the control, was added. Three minutes later, 10 μl of a platelet agglutinating substance (10 μM of ADP or 1 μg/ml of collagen, as the final concentration) was added thereto to induce agglutination.
(§5) The blood platelet agglutination inhibiting activity of each test compound was represented by ED50 (i.e. the concentration of the test compound where the platelet agglutination is suppressed to 50%).

Ethanol ulcer = Ethanol ulcer inhibiting activity; format: in vivo, Male wister rats; conditions: rat; for ED50: po, P.O., 30 minutes before 99.5% ethanol
Experimental: Ethanol ulcer inhibiting activity
Male wister rats having a weight of from 170 to 270 g were put into individual cages and starved for 24 hours. During this starvation period, the rats were allowed to drink water freely. A test compound or PGE2 as a comparative compound was orally administered in an amount of 3, 10 or 30 μg/kg, and 30 minutes later, 1 ml of 99.5% ethanol was orally administered to each rat. One hour after the ethanol administration, each rat was filled by cervical vertebral luxation, and the stomach was taken out. A 1% formaline solution was injected into the stomach in an amount of about 8 ml, and the stomach was fixed in the formaline solution for 30 minutes. After the fixing, the stomach was severed along the greater curvature, and the mucous membrane surface of the stomach was gently washed with flowing water. Then, the total length of damages appearing on the gastric glandular portion was obtained and used as the ulcer index.
The ethanol ulcer inhibiting activity of a test compound was represented by ED50 (i.e. the dose of the test compound at which the ulcer was inhibited by 50% relative to the ulcer index of the non-treated group). To the non-treated group, the solvent was administered.

femoral artery = assay: Blood flow-increasing activity in the femoral artery, anesthetized dog; format: in vivo, crossbred adult dog; conditions: for ED50: Canis lupus familiaris, dog, near arterial injection, papaverine hydrochloride 100 μg/kg = 100%; for Activity ratio, blood flow-increasing activity in femoral artery: relative to prostacyclin = 1
Experimental: Blood flow-increasing activity in the femoral artery
A male or female crossbred adult dog having a weight of from 8 to 13 kg, was anesthetized by intravenous administration of sodium Pentobarbital. Then, a tracheal cannula was inserted, and artificial respiration was conducted. The blood flow in the femoral artery was measured by inserting the annula into the left femoral artery under sodium heparin treatment and providing a blood flow measuring probe at it other end, and by using an electromagnetic flow meter. The test compound was injected into the femoral artery by near arterial injection, and the blood flow-increasing activity in the femoral artery was represented by ED50 (i.e. the dose of a test compound at which the blood flow increases by 50%, as evaluated on the bais that the blood flow increase (representing substantially the maximum reaction) by the administration of 100 μg/kg of papaveline hydrochloride into the femoral artery, is evaluted to be 100%).

[2] = test system: Blood platelet (ADP agglutination); assay: Blood platelet agglutination inhibiting activity (ADP-induced), washed rabbit platelet suspension; format: cell-based, rabbit (Japanese white male rabbits); conditions: for pIC50: Oryctolagus cuniculus, Platelet, ADP 10 μM, concentration suppressing agglutination to 50%, read-out: Platelet agglutination inhibiting activity ED50, ADP agglutination; for Activity ratio, platelet agglutination inhibiting activity, ADP agglutination: relative to prostacyclin = 1
Experimental: as §1, §2, §3, §4, §5

Hydrochloric acid ulcer = Hydrochloric acid ulcer inhibiting activity; format: in vivo, wister rats; conditions: rat; oral administration of 30 μg/kg; 0.6N hydrochloric acid; read-out: Hydrochloric acid ulcer inhibiting activity, Inhibiting rate
Experimental: Hydrochloric acid ulcer inhibiting activity
Male wister […] having a weight of from 190 to 240 g were used. The rats were starved in the same manner as in Test Example 6, and the test compounds and PGE2 were, respectively, orally administered in an amount of 30 μg/kg, and 30 minutes later, 1 ml of 0.6N hydrochloric acid was orally administered. Thirty minutes after the hydrochloric acid administration, each rat was killed by cervical vertebral luxation. Then, the stomach was taken out and fixed, and the ulcer index was obtained, in the same manner as in Test Example 6. The hydrochloric acid ulcer inhibiting activity of a test compound was represented by the inhibiting percentage (i.e. the percentage of the ulcer index of the treated group to the ulcer index of the non-treated group). To the non-treated group, the solvent was administered.

diastolic blood pressure = assay: Hypotensive activity, anesthetized dog; format: in vivo, crossbred adult dog; conditions: for Hypotensive activity, blood pressure decrease: at 10 μg/kg i.v.; for Activity ratio, hypotensive activity: relative to prostacyclin = 1
Experimental: A male or female crossbred adult dog having a weight of from 9 to 14 kg was anesthetized by intraveous administration of sodium Pentobarbital. Then, the left carotid was exposed under artificial respiration, and the blood pressure was measured by using an electric blood pressure meter. […]

Indomethacine ulcer = Indomethacine ulcer inhibiting activity; format: in vivo, Male wister rats; conditions: rat; oral administration of 60 μg/kg twice
Description: Indomethacine ulcer inhibiting activity
Male wister rats having a weight of from 210 to 270 g were used. The rats were starved in the same manner as in Test Example 6. […] Three hours after the indomethacine administration, the test compound or PGE2 was again orally administered in the same amount. Six hours after the first administration of indomethacine, each rat was killed by cervical bertebral luxation. The stomach was taken out and fixed, and the ulcer index was obtained, in the same manner as in Test Example 6.
The indomethacine ulcer inhibiting activity of a test compound was represented by the inhibiting percentage (i.e. the inhibiting percentage of the ulcer index of the treated group to the ulcer index of the non-treated group). To the non-treated group, the solvent was administered.

vertebral artery = assay: Blood flow-increasing activity in the vertebral artery, anesthetized dog; format: in vivo, crossbred adult dog; conditions: for ED50: Canis lupus familiaris, papaverine hydrochloride 100 μg/kg = 100%; for Activity ratio, blood flow-increasing activity in vertebral artery: relative to prostacyclin = 1
Description: Blood flow-increasing activity in the vertebral artery
A made or female crossbred adult dog having a weight of from 8 to 13 kg was anesthetized by intravenous administration of sodium Pentobarbital and subjected to thoractomy along the mediam line under artificial respiration to expose the left vertebral artery. Under sodium peparin treatment, a polyethylene cannula was inserted into the vertebral artery, and a blood flow-measuring probe was attached to its other end, to which a blood circulation tube led from the left femoral artery was connected, whereby the blood flow in the vertebral artery was measured by using an electromagnetic flow meter. The test compound was injected into the vertebral artery by near arterial injection, and the blood flow-increasingactivity in the vertebral artery was represented by ED50 (i.e. the dose of a test compound at which the blood flow increases by 50%, as evaluated on the basis that the blood flow increase (representing substantially the maximum reaction) by the administration of 100 μg/kg papaverine hydrochloride into the vertebral artery, is evaluated to be 100%).

ulcer = assay: Anti-ulcer activity (general statement); format: in vivo, animals; conditions: compared with typical PG such as PGE2
Description: On the basis of this discovery, a further research has been made for the application to the prevention and treatment of digestive organ ulcers, and have accomplished the present invention.

coronary artery = assay: Blood flow-increasing activity in the coronary artery, anesthetized dog; format: in vivo, crossbred adult dog; conditions: for ED50: Canis lupus familiaris, dog, near arterial injection, reactive hyperemia = 100%; for Activity ratio, blood flow-increasing activity in coronary artery: relative to prostacyclin = 1
Experimental: Blood flow-increasing activity in the coronary artery
A crossbred adult dog having a weight of from 9 to 15 kg was anesthetized with sodium Pentobarbital and subjected to thoractomy under artificial respiration. After pericardiectomy, the frontal descending branch of the left coronary artery was separated from the surrounding tissues, and a blood flow-measuring probe was attached thereto under sodium heparin treatment. The coronary blood flow was measured by using an electromagnetic flow meter. The test compound was injected into the coronary artery by near arterial injection, and the blood flow-increasing activity in the coronay artery was represented by ED50 (i.e. the dose of a test compound at which the blood flow increases by 50%, as evaluated on the basis that the blood flow increase by the reactive hyperemia caused by releasing the blood flow of the coronary artery after blocking it for 15 seconds, is evaluated to be 100%).

[3] = test system: blood flow of various organs; assay: Blood flow increasing activity in various organs (general statement); conditions: in vivo
[4] = background; cited from earlier work

Row | Compound | Activity ratio, platelet agglutination inhibiting activity, Collagen agglutination [1] | ED50 (Ethanol ulcer) [µg/kg] | ED50 (femoral artery) [µg/kg] | Activity ratio, blood flow-increasing activity in femoral artery (femoral artery) | pIC50 [2] | Activity ratio, platelet agglutination inhibiting activity, ADP agglutination [2] | inhibition in vivo at 0.03 mg/kg (Hydrochloric acid ulcer) [%] | Hypotensive activity, blood pressure decrease (diastolic blood pressure; dog) [mmHg] | Activity ratio, hypotensive activity (diastolic blood pressure) | Indomethacine ulcer inhibiting activity, Inhibiting rate (Indomethacine ulcer) [%] | ED50 (vertebral artery; dog, near arterial injection) [µg/kg] | Activity ratio, blood flow-increasing activity in vertebral artery (vertebral artery) | Anti-ulcer activity (in words) (ulcer) | ED50 (coronary artery) [µg/kg] | Activity ratio, blood flow-increasing activity in coronary artery (coronary artery) | pIC50 [1] | Activity to increase the blood flow (in words) [3] | other results
1 | CCC#CCC(C)[C@H](O)/C=C/[C@@H]1[C@H]2CCC(CCCCC(=O)O)=C[C@H]2C[C@H]1O (stereo partly drawn) [(f), 3-(4-carboxybutyl)-7-exo-(3α-hydroxy-4,8-dimethyl-trans-1-octen-6-ynyl)-8-endo-hydroxy-cis-bicyclo[4,3,0]nona-2-ene] | 1/8 | 2.92 | 0.56 | 1/23 | 7.64 | 1/8 | 20.5 | 33 | 1/77 | 38.8 | 0.57 | 1/13 | comparable or superior to typical PG having anti-ulcer activities, such as PGE2 | 1.75 | 1/269 | – | – | –
2 | CCC#CCC(C)[C@H](O)/C=C/[C@@H]1[C@H]2CCC(C=CCCC(=O)O)=C[C@H]2C[C@H]1O (stereo partly drawn) [(d), 3-(4-carboxy-1-butenyl)-7-exo-(3α-hydroxy-4,8-dimethyl-trans-1-octen-6-ynyl)-8-endo-hydroxy-cis-bicyclo[4,3,0]nona-2-ene] | – | 2.55 | 0.9 | 1/38 | 8.06 | 1/3 | 24.1 | – | 1/36 | 73.5 | 1.9 | 1/43 | comparable or superior to typical PG having anti-ulcer activities, such as PGE2 | 0.38 | 1/38 | – | – | ED (50 mmHg) (diastolic blood pressure; Canis lupus familiaris, iv, dog, femoral vein, Table 1, read-out: Hypotensive activity ED50 (dose reducing diastolic blood pressure by 50 mmHg)): 8.7 µg/kg
3 | CCCCC[C@H](O)/C=C/[C@@H]1[C@H]2CCC(C=CCCC(=O)O)=C[C@H]2C[C@H]1O [(c), 3-(4-carboxy-1-butenyl)-7-exo-(3α-hydroxy-trans-1-octenyl)-8-endo-hydroxy-cis-bicyclo[4,3,0]nona-2-ene] | 1/21 | – | 0.56 | 1/23 | 7.30 | 1/17 | 13.5 | 27.9 | about 1/125 and 1/125 | – | – | – | – | 2.1 | 1/210 | 7.14 | activity to increase the blood flow of various organs to a proper extent | Ethanol ulcer inhibition (Ethanol ulcer; oral administration of 30 μg/kg): 31.7%; Indomethacine ulcer inhibition (in words) (Indomethacine ulcer): Certain inhibition; Blood flow increase in vertebral artery (vertebral artery; dog, at 3 μg/kg, near arterial injection): 36.9%
4 | CCCCC[C@H](O)/C=C/[C@@H]1[C@H]2C=C(CCCCC(=O)O)C[C@H]2C[C@H]1O [9-(O)-methano-Δ^6 -PGI1] | – | – | – | – | – | – | – | – | – | – | – | – | – | – | – | – | – | Chemical stability (in words) [4]: chemically stable
5 | CCC#CCC(C)[C@H](O)/C=C/[C@@H]1[C@H]2CCC(CCCC(=O)O)=C[C@H]2C[C@H]1O (stereo partly drawn) [(b), 3-(3-carboxypropyl)-7-exo-(3α-hydroxy-4,8-dimethyl-trans-1-octen-6-ynyl)-8-endo-hydroxy-cis-bicyclo[4,3,0]nona-2-ene] | 1/12 | 2.79 | 0.35 | 1/15 | 7.11 | 1/27 | 54.8 | 27.9 | about 1/135 | 99.4 | 0.75 | 1/17 | comparable or superior to typical PG having anti-ulcer activities, such as PGE2 | 1.2 | 1/120 | 7.36 | activity to increase the blood flow of the vertebral artery, coronary artery and femoral artery | –
